Test results published in patent US9232799B2, “N-[(het)arylethyl)] pyrazole(thio)carboxamides and their heterosubstituted analogues” (BAYER INTELLECTUAL PROPERTY GMBH, priority 2010, dated 2016).

Columns and labels:
[1] = logP by HPLC on reversed-phase column (C 18), EEC Directive 79/831 Annex V.A8; format: physicochemical
Protocol: In table 1, the logP values were determined in accordance with EEC Directive 79/831 Annex V.A8 by HPLC (High Performance Liquid Chromatography) on a reversed-phase column (C 18), using the method described below: Temperature: 40° C.; […]

Pyrenophora teres = assay: In vivo preventive test on Pyrenophora teres (barley); details: 500 ppm of active ingredient, evaluated 7-9 days after inoculation
Excerpt: One day after this treatment, the plants are inoculated with an aqueous spore suspension of Pyrenophora teres.

aflatoxines production = assay: microbe, parasite or virus in culture; format: cell-based, Aspergillus parasiticus; details: 50 μM
Fusarium graminearum = assay: microbe, parasite or virus in culture; format: cell-based; details: 50 μM
Alternaria solani = assay: In vivo preventive test on Alternaria solani (tomato); details: 500 ppm of active ingredient, evaluated 7 days after inoculation
Excerpt: One day after this treatment, the plants are inoculated with an aqueous spore suspension of Alternaria solani.

SMILES	logP [1]	Efficacy (Pyrenophora teres) [%]	% Inhibition of Aflatoxin at 50 μM (aflatoxines production) [%]	% Inhibition of fungal growth at 50 μM (Fusarium graminearum) [%]	Efficacy (Alternaria solani) [%]
COc1ccc(CCN(C)C(=O)c2c(C(F)F)nn(C)c2F)cc1OC [Example 129]	2.04	90	90	70	–
Cn1nc(C(F)F)c(C(=O)NCCc2cccc(Oc3ccccc3)c2)c1F [Example 143]	3.37	89	–	–	95
Cn1nc(C(F)F)c(C(=O)NCC(C)(C)c2cc(Cl)ccc2Cl)c1F [Example 100]	3.68	94	99	85	95
Cn1nc(C(F)F)c(C(=O)NCCc2c(Cl)cccc2Cl)c1F [Example 117]	3.00	100	100	100	95
Cn1nc(C(F)F)c(C(=O)NCC(c2cccs2)C(F)(F)F)c1Cl (stereo not shown) [Example 162]	2.92	95	98	80	100
Cn1nc(C(F)F)c(C(=S)NC[Si](C)(C)c2ccc(Cl)cc2Cl)c1F [Example 241]	4.74	100	–	–	–
CCN(CCc1ccc(Cl)cc1)C(=O)c1c(C(F)F)nn(C)c1Cl [Example 57]	3.35	70	–	–	80
Cn1nc(C(F)F)c(C(=O)NCCc2ccccc2Cl)c1F [Example 32]	2.69	100	100	99	95
Cn1nc(C(F)F)c(C(=O)NCC(C)(C)c2ccc(Oc3ccccc3)cc2)c1F [Example 157]	4.06	80	–	–	–
Cn1nc(C(F)F)c(C(=S)NC[Si](C)(C)c2ccccc2Cl)c1F [Example 234]	4.11	100	–	–	70
Cn1nc(C(F)F)c(C(=O)NCCc2ccc(Oc3ccccc3)cc2)c1Cl [Example 155]	3.60	100	–	–	95
Cn1nc(C(F)F)c(C(=O)NCC(C)(C)c2cc(Cl)cc(Cl)c2)c1F [Example 113]	3.87	90	–	–	80
CC(CN(C)C(=O)c1c(C(F)F)nn(C)c1Cl)c1ccncc1 (stereo not shown) [Example 207]	1.74	–	99	37	–
COCCN(CCc1ccncc1)C(=O)c1c(C(F)F)nn(C)c1Cl [Example 202]	1.69	–	99	81	–
CN(CCc1ccccc1)C(=O)c1c(C(F)F)nn(C)c1Cl [Example 9]	2.60	95	–	–	95
CN(CC(=O)c1ccc(Cl)cc1)C(=O)c1c(C(F)F)nn(C)c1F [Example 61]	2.53	–	100	84	90
Cn1nc(C(F)F)c(C(=O)NCCc2ccsc2Br)c1F [Example 166]	2.64	–	100	97	–
Cn1nc(C(F)F)c(C(=O)NCCc2csc3c2CCCC3)c1F [Example 170]	3.31	–	100	95	–
CCN(CCc1ccc(Cl)cc1)C(=S)c1c(C(F)F)nn(C)c1F [Example 58]	3.92	100	–	–	–
CC(Cc1c(F)cccc1F)N(C(=O)c1c(C(F)F)nn(C)c1Cl)C1CC1 (stereo not shown) [Example 27]	3.57	95	–	–	95
Cc1scc(CCNC(=O)c2c(C(F)F)nn(C)c2Cl)c1C [Example 168]	3.02	–	100	97	–
Cn1nc(C(F)F)c(C(=O)NCC(C)(C)c2cc(Cl)cc(Cl)c2)c1Cl [Example 114]	4.01	80	–	–	–

SMILES	logP [1]	Efficacy (Pyrenophora teres) [%]	% Inhibition of Aflatoxin at 50 μM (aflatoxines production) [%]	% Inhibition of fungal growth at 50 μM (Fusarium graminearum) [%]	Efficacy (Alternaria solani) [%]
Cn1nc(C(F)F)c(C(=O)NCCc2ccccc2Oc2ccccc2)c1F [Example 140]	3.48	95	–	–	100
CN(CCc1ccc(C(C)(C)C)cc1)C(=O)c1c(C(F)F)nn(C)c1Cl [Example 139]	3.96	90	–	–	90
CC(Cc1ccco1)NC(=O)c1c(C(F)F)nn(C)c1F (stereo not shown) [Example 173]	2.20	–	100	83	–
Cn1nc(C(F)F)c(C(=S)NCCc2ccc(Cl)cc2Cl)c1Cl [Example 72]	4.11	100	–	–	94
CC(Cc1c(Cl)cccc1Cl)N(C(=O)c1c(C(F)F)nn(C)c1Cl)C1CC1 (stereo not shown) [Example 116]	4.29	100	–	–	100
Cn1nc(C(F)F)c(C(=O)NCC(C)(C)c2ccc(Cl)cc2)c1F [Example 63]	3.37	94	–	–	90
Cn1nc(C(F)F)c(C(=O)NCC(C)(C)c2ccc(Oc3ccccc3)cc2)c1Cl [Example 158]	4.21	–	–	–	80
Cn1nc(C(F)F)c(C(=O)NC2CCCCC2c2ccccc2)c1F (stereo not shown) [Example 213]	3.29	–	–	–	89
Cn1nc(C(F)F)c(C(=O)NCC(C)(C)c2ccccc2Cl)c1F [Example 45]	3.27	100	–	–	90
Cn1nc(C(F)F)c(C(=O)N(CCc2ccccc2)CC(F)(F)F)c1F [Example 5]	3.25	80	–	–	–
CCN(C(=O)c1c(C(F)F)nn(C)c1F)C(C)C(=O)c1ccccc1 (stereo not shown) [Example 17]	2.59	–	100	83	80
Cn1nc(C(F)F)c(C(=O)NCC(C)(C)c2cccc(Cl)c2)c1F [Example 53]	3.31	94	–	–	70
C#CCOc1cc(C(OC)C(C)NC(=O)c2c(C(F)F)nn(C)c2Cl)ccc1OC (stereo not shown) [Example 159]	2.76	–	98	77	–
Cn1nc(C(F)F)c(C(=O)NC2CC2c2ccc(F)cc2)c1F (stereo not shown) [Example 220]	2.59	100	100	81	–
Cn1nc(C(F)F)c(C(=O)NCCc2ccccc2C(F)(F)F)c1Cl [Example 122]	3.11	94	–	–	95
Cn1nc(C(F)F)c(C(=O)NC(C)(C)Cc2cccc(Oc3ccccc3)c2)c1F [Example 142]	4.09	78	–	–	90
CC(Cc1ccco1)NC(=O)c1c(C(F)F)nn(C)c1Cl (stereo not shown) [Example 174]	2.37	–	89	76	–
CC(Cc1cccc(Cl)c1)NC(=O)c1c(C(F)F)nn(C)c1Cl (stereo not shown) [Example 48]	3.17	100	–	–	95
Cn1nc(C(F)F)c(C(=O)NC2CCCCC2c2ccccc2)c1F (stereo not shown) [Example 212]	3.13	–	100	99	89
Cn1nc(C(F)F)c(C(=S)NCC(C)(C)c2ccc(Cl)cc2Cl)c1Cl [Example 89]	4.72	100	–	–	–
Cc1cc(C)c(CCN(C)C(=O)c2c(C(F)F)nn(C)c2Cl)c(C)c1 [Example 137]	3.67	–	–	–	90
